Laboratory results: US9157099B2, “Methods for preparing a hydrocarbon” (SHELL OIL COMPANY, priority 2012, dated 2015)
Entries after “also recorded” stand apart in the source; their conditions may differ.

Key:
purified His-Fdc1/Pad1 [1] = molecular target: T1, purified His-Fdc1/Pad1 (Saccharomyces cerevisiae, UniProt Q03034); assay: head space GC-MS product analysis, in vitro reactions; type: biochemical; parameters: His (N); made in house; host or cells: E. coli Bl21(DE3), pCOLAduet-1 co-expression plasmid, Ni-NTA purified; settings: purified enzyme, 25° C.
T1 sequence (Q03034 1-503): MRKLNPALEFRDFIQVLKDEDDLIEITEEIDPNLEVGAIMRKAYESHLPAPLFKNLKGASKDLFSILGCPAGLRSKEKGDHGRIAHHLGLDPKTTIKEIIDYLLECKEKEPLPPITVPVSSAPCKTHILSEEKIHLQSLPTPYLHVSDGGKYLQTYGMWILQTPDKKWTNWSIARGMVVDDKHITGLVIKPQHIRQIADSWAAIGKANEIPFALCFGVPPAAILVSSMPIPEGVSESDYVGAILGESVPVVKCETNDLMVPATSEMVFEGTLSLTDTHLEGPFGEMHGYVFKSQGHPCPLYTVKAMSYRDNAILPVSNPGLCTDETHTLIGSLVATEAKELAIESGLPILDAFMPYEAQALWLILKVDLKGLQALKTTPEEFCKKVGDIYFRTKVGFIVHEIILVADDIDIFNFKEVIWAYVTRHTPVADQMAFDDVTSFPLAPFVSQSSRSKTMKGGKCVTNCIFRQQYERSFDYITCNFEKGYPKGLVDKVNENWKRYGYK
Procedure: For in vitro analysis, purified His-Fdc1/Pad1 polypeptide was buffer exchanged into a solution of 150 mM NaCl and 50 mM NaPi in water with pH 7.5. Subsequently solutions of 11.5 ml 150 mM NaCl and 50 mM NaPi with pH 7.5, of 3.5 ml 20 mM substrate with pH 7.5 and of 150 μl 30 mg/ml enzyme in water or buffer were added to 20 ml head space vials with crimp top seals. Reactions were incubated with shaking at 25° C. for about 12-48 hours.
(§1) Samples were analysed by GC-MS using a Thermofisher DSQ II. Vials were incubated for 3 minutes at 80° C. with agitation. 0.5 ml headspace was injected with a 105° C. syringe and a split ratio of 1/10. Analytes were separated on a 30 m 0.25 mm 0.25μ ZB5-MS (commercially obtainable from Zebron) column run (alternatively a 30 m×0.25 mm i.d.×0.1μ Varian VF-5HT column may be used) with a flow of 1.5 ml/min He. Oven temperature was held at 35° C. for 2 minutes before being ramped up to 250° C. at 10° C./min. Products were identified by searching for the corresponding mass peak.
For in vitro reactions, Fdc1/Pad1 partially purified by Ni^2+ affinity and buffer exchanged into 150 mM NaCl, 50 mM NaPi pH 7.5. 11.5 ml […] pH 7.5, 3.5 ml 20 mM substrate pH 7.5 and 150 μl 30 mg/ml enzyme or enzyme free buffer were added to a sealed headspace vial.
(§2) All Fdc1/Pad1 reactions were incubated in a shaking incubator at 25° C. for ˜36 hours.
as §1, with “(or” for “(commercially obtainable from Zebron) column run (alternatively a”, “VF-5HT)” for “VF-5HT”, “run” for “may be used)”, “raised” for “ramped up”

purified His-Fdc1/Pad1 [2] = molecular target: T1, purified His-Fdc1/Pad1; assay: UV-VIS spectroscopy of substrate consumption, Michaelis Menten parameters; settings: for Kcat: substrate of purified His-Fdc1/Pad1, pH 6, 20° C.
Procedure: A direct observation of enzyme activity is possible by recording UV-VIS spectra of the solution. Aromatic substrates and aliphatic substrates with two or more double bonds conjugated to the acidic group absorb in the UV region. The activity of purified His-Fdc1/Pad1 was assayed against varying concentrations of these substrates in 400 μl 50 mM KCl, 50 mM NaPi pH 6 in a 1 mm pathlength cuvette at 20° C. Substrate consumption was monitored using a Cary 50 Bio spectrophotometer (varian) either in scanning mode, or at a specific wavelength for kinetic experiments. The rate of cinnamic acid consumption was monitored at 270 nm, ferulic acid at 312 nm, 2,4-pentadienoic acid at 242 nm, sorbic acid at 260 nm, 2,4,6-octatrienoic acid at 290 nm and 2,4-nonadienoic acid at 260 nm.

[3] = molecular target: T2, fdc1/pad1 in pCOLAduet in E. coli Bl21(DE3) (Saccharomyces cerevisiae, UniProt Q03034); assay: head space GC-MS product analysis, in vivo (induced cultures); type: cell-based; settings: E. coli cultures expressing Fdc1/Pad1, 25° C.
T2 construct: expressed in transfected cells; host or cells: E. coli Bl21(DE3) carrying fdc1 (MCS1) and pad1 (MCS2) in pCOLAduet-1
T2 sequence (Q03034 1-503): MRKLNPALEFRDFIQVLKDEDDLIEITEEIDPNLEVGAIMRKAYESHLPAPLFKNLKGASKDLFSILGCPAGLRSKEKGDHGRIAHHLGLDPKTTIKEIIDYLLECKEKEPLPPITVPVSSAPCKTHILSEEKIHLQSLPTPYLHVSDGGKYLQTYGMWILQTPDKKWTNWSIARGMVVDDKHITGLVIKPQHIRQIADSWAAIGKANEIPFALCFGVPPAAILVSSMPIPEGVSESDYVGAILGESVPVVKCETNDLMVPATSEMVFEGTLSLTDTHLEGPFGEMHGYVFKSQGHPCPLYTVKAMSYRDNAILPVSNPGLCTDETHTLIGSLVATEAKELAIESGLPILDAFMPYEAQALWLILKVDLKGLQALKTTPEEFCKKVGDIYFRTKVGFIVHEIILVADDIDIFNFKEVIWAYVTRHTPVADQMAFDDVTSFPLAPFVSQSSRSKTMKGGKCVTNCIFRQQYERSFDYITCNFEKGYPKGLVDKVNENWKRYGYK
Procedure: For in vivo analysis, fdc1/pad1 in pCOLAduet and empty pCOLAduet in E. coli Bl21(DE3) were grown in LB supplemented with 40 μg/ml kanamycin at 37° C. to an OD600 of about 0.7 and induced with […] IPTG. 11.5 ml induced culture and a solution of 3.5 ml 20 mM substrate in distilled water with a pH of about 7.5 were placed in 20 ml head space vials with crimp top seals. Cultures were incubated in shaking incubator at 25° C. for about 12-48 hours.
as §1
As described above, for in vivo studies, Fdc1/Pad1 in pCOLAduet-1 and empty pCOLAduet-1 vector were transformed into E. coli Bl21(DE3). Cultures were grown in LB supplemented with 40 μg/ml kanamycin at 37° C. to OD600˜0.7 and induced with 1 mM IPTG. 11.5 ml of induced culture was added to 3.5 ml 20 mM substrate pH ˜7.5 per tube in a sealed headspace vial.
as §2
as §1, with “(or” for “(commercially obtainable from Zebron) column run (alternatively a”, “VF-5HT)” for “VF-5HT”, “run” for “may be used)”, “raised” for “ramped up”

Fdc1/Pad1 = molecular target: T3, Fdc1/Pad1 (Saccharomyces cerevisiae, UniProt Q03034); assay: Fdc1/Pad1 substrate range, in vivo and in vitro (summary); settings: summary of substrate range
T3 construct: His (N); made in house; host or cells: E. coli Bl21(DE3), pCOLAduet-1
T3 sequence (Q03034 1-503): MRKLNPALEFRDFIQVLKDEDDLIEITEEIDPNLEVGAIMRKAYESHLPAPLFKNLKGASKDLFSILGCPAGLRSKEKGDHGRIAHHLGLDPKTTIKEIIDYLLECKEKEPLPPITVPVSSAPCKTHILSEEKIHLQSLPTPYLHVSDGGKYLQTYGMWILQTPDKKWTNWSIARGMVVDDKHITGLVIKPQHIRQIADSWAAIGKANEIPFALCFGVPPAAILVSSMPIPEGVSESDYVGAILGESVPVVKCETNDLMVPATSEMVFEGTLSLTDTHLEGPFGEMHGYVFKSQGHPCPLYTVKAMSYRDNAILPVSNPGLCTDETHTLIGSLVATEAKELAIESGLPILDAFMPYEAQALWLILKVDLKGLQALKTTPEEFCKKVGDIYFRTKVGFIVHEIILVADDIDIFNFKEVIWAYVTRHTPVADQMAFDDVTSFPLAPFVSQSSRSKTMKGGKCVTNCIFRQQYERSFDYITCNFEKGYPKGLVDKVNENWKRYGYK
Excerpt: To assess what limit the enzyme imposes on the extent of unsaturation, the inventors tested a wide range of saturated and unsaturated substrates, both in vivo and in vitro.

[4] = molecular target: E. coli Bl21(DE3) cells containing the fdc1/pad1 co-expression plasmid (Saccharomyces cerevisiae, UniProt Q03034); settings: 6 mM sorbic acid, pH 6.2, overnight at 37° C.
Procedure: In vivo enzyme activity assays were carried out using exogenous supplied substrates in the media (i.e. sorbic acid).
For in vivo pH assays, LB agar plates were supplemented with […] kanamycin, 6 mM sorbic acid and 0.004% w/v phenol red in distilled water and buffered to pH 6.2. E. coli Bl21(DE3) cells containing either the co-expression plasmid or empty pCOLAduet-1 were inoculated onto the plate and grown overnight at 37° C. […] This allows rapid visual indication of enzyme activity levels.

[5] = substrate: C=CC=CC(=O)O; assay: purified protein, by the assay type; settings: other: substrate of purified His-Fdc1/Pad1, pH 6, 20° C.
[6] = substrate: CCCCC=CC=CC(=O)O; assay: purified protein, by the assay type; settings: other: substrate of purified His-Fdc1/Pad1, pH 6, 20° C.
[7] = substrate: COc1cc(/C=C/C(=O)O)ccc1O; assay: purified protein, by the assay type; settings: other: substrate of purified His-Fdc1/Pad1, pH 6, 20° C.
[8] = substrate: C/C=C/C=C/C(=O)O; assay: purified protein, by the assay type; settings: other: substrate of purified His-Fdc1/Pad1, pH 6, 20° C.
[9] = substrate: CC=CC=CC=CC(=O)O; assay: purified protein, by the assay type; settings: other: substrate of purified His-Fdc1/Pad1, pH 6, 20° C.
[10] = substrate: O=C(O)C=Cc1ccccc1; assay: purified protein, by the assay type; settings: other: substrate of purified His-Fdc1/Pad1, pH 6, 20° C.

Molecule	Kcat (purified His-Fdc1/Pad1 [2])	in vitro and in vivo activity (decarboxylation) (Fdc1/Pad1)	decarboxylation product formation by GC-MS, in vitro (purified His-Fdc1/Pad1 [1])	decarboxylation product formation by GC-MS, in vivo [3]	further results
CCCC=CC(=O)O [2-Hexenoic acid]	–	Lower level activity	1-pentene product has been detected and enzyme-catalysed production of 1-pentene	also been detected in vivo	–
CCCCC=CC=CC(=O)O [2,4-Nonadienoic acid]	–	high	–	–	–
CCCCCC=CC(=O)O [2-Octenoic acid]	–	–	–	only been detected in vivo	decarboxylation product formation by GC-MS, in vivo ([3]; listed as 2-octenoic acids): In vivo activity has also been detected
CCCCC=CC(=O)O [2-Heptenoic acid]	–	–	–	only been detected in vivo; also recorded: In vivo activity has also been detected	–
CC=CC=CC=CC(=O)O [2,4,6-Octatrienoic acid]	–	high	–	–	enzyme dependent spectral changes / conversion by UV-VIS (purified His-Fdc1/Pad1 [2]): enzyme catalysed conversion
C/C=C/C=C/C(=O)O [Sorbic acid]	2.793 s⁻¹	high	confirmed product formation	verified the presence of the anticipated decarboxylation products	substrate dependent alkalinification in vivo [4]: yellow to red colour change observed
C=CC=CC(=O)O [2,4-Pentadienoic acid]	–	high	–	–	–
purified His-Fdc1/Pad1 (Saccharomyces cerevisiae S288C) (protein) MRKLNPALEFRDFIQVLKDEDDLIEITEEIDPNLEVGAIMRKAYESHLPAPLFKNLKGASKDLFSILGCPAGLRSKEKGDHGRIAHHLGLDPKTTIKEIIDYLLECKEKEPLPPITVPVSSAPCKTHILSEEKIHLQSLPTPYLHVSDGGKYLQTYGMWILQTPDKKWTNWSIARGMVVDDKHITGLVIKPQHIRQIADSWAAIGKANEIPFALCFGVPPAAILVSSMPIPEGVSESDYVGAILGESVPVVKCETNDLMVPATSEMVFEGTLSLTDTHLEGPFGEMHGYVFKSQGHPCPLYTVKAMSYRDNAILPVSNPGLCTDETHTLIGSLVATEAKELAIESGLPILDAFMPYEAQALWLILKVDLKGLQALKTTPEEFCKKVGDIYFRTKVGFIVHEIILVADDIDIFNFKEVIWAYVTRHTPVADQMAFDDVTSFPLAPFVSQSSRSKTMKGGKCVTNCIFRQQYERSFDYITCNFEKGYPKGLVDKVNENWKRYGYK	–	–	–	–	Km [5]: 109 µM; kcat [5]: 0.336 s⁻¹; Km [6]: 221 µM; kcat [6]: 0.588 s⁻¹; Km [7]: 203 µM; Km [8]: 81 µM; Km [9]: 213 µM; kcat [9]: 99 s⁻¹; Km [10]: 21 µM

Now from value to molecule, other results behind:

Kcat (purified His-Fdc1/Pad1 [2])	in vitro and in vivo activity (decarboxylation) (Fdc1/Pad1)	Molecule	decarboxylation product formation by GC-MS, in vitro (purified His-Fdc1/Pad1 [1])	decarboxylation product formation by GC-MS, in vivo [3]	further results
34.394 s⁻¹	high	O=C(O)C=Cc1ccccc1 [Cinnamic acid]	confirmed product formation; also recorded: confirming styrene production	verified the presence of the anticipated decarboxylation products; also recorded: confirming styrene production	–
30.774 s⁻¹	high	COc1cc(/C=C/C(=O)O)ccc1O [Ferulic acid]	confirmed product formation	verified the presence of the anticipated decarboxylation products	–
